Bridge positions count the residues as written; N and C are the ends. Peptide text beside a SMILES is read from it.
Test system: Escherichia coli W3110
Assay type: cell-based
Settings: W3110

| W3110 MIC | Structure (SMILES) |
| --- | --- |
| >256 µg/mL | CC[C@H](C)[C@@H]1NC(=O)[C@H]([C@@H](C)O)NC(=O)[C@H](CC(C)C)NC(=O)[C@@H](N)CSSC[C@@H](C(=O)O)NC(=O)[C@H](C(C)C)NC(=O)[C@H](CCC(=O)O)NC(=O)[C@H](C(C)C)NC(=O)[C@H](CO)NC(=O)[C@H](C(C)C)NC(=O)[C@H](CCCCN)NC(=O)[C@H](C(C)C)NC(=O)[C@H](CCCNC(=N)N)NC(=O)[C@H](CO)NC(=O)[C@H](CCCNC(=N)N)NC(=O)[C@H](CCCNC(=N)N)NC(=O)[C@H](CC(=O)O)NC(=O)[C@H](CC(=O)O)NC(=O)[C@H](CC(C)C)NC(=O)[C@H](CCCNC(=N)N)NC1=O [SyRA-1] (H-CLTIRLDDRRSRVKVSVEVC-OH; disulfide 1-20) |
| >256 µg/mL | CC[C@H](C)[C@@H]1NC(=O)[C@H](CCCNC(=N)N)NC(=O)[C@H](CC(C)C)NC(=O)[C@@H](N)CSSC[C@@H](C(=O)O)NC(=O)[C@H](C(C)C)NC(=O)[C@H](CCC(N)=O)NC(=O)[C@H](C(C)C)NC(=O)[C@H]([C@@H](C)O)NC(=O)[C@H]([C@@H](C)CC)NC(=O)[C@H](CCCNC(=N)N)NC(=O)[C@H](C(C)C)NC(=O)CNC(=O)CNC(=O)[C@H](CCCNC(=N)N)NC(=O)[C@H](CCCNC(=N)N)NC(=O)[C@H](CC(N)=O)NC(=O)[C@H](CC(N)=O)NC(=O)[C@H](C(C)C)NC(=O)[C@H](CCCNC(=N)N)NC1=O [SyRA-2] (H-CLRIRVNNRRGGVRITVQVC-OH; disulfide 1-20) |
| >256 µg/mL | CC[C@H](C)[C@@H]1NC(=O)[C@H](CCCCN)NC(=O)[C@H](C(C)C)NC(=O)[C@H](CCCNC(=N)N)NC(=O)[C@H](CO)NC(=O)[C@H](CCCNC(=N)N)NC(=O)[C@H](CCCNC(=N)N)NC(=O)[C@H](CC(N)=O)NC(=O)[C@H](CC(=O)O)NC(=O)[C@H](C(C)C)NC(=O)[C@H](CCCNC(=N)N)NC(=O)[C@H]([C@@H](C)CC)NC(=O)[C@H]([C@@H](C)O)NC(=O)[C@H](CC(C)C)NC(=O)[C@@H](N)CSSC[C@@H](C(=O)O)NC(=O)[C@H](C(C)C)NC(=O)[C@H](CCC(=O)O)NC(=O)[C@H](CC(C)C)NC(=O)[C@H]([C@@H](C)O)NC1=O [SyRA-4] (H-CLTIRVDNRRSRVKITLEVC-OH; disulfide 1-20) |
| >256 µg/mL | CC[C@H](C)[C@@H]1NC(=O)[C@H](CCCCN)NC(=O)[C@H](C(C)C)NC(=O)CNC(=O)[C@H](CCCNC(=N)N)NC(=O)[C@H](CCCNC(=N)N)NC(=O)[C@H](CCCNC(=N)N)NC(=O)[C@H](CC(=O)O)NC(=O)[C@H](CC(N)=O)NC(=O)[C@H](CC(C)C)NC(=O)[C@H](CCCNC(=N)N)NC(=O)[C@H]([C@@H](C)CC)NC(=O)[C@H]([C@@H](C)O)NC(=O)[C@H](C(C)C)NC(=O)[C@@H](N)CSSC[C@@H](C(=O)O)NC(=O)[C@H](C(C)C)NC(=O)[C@H](CCC(=O)O)NC(=O)[C@H](C(C)C)NC(=O)[C@H](CO)NC1=O [SyRA-7] (H-CVTIRLNDRRRGVKISVEVC-OH; disulfide 1-20) |
| >256 µg/mL | CC[C@H](C)[C@@H]1NC(=O)[C@H]([C@@H](C)O)NC(=O)[C@H](C(C)C)NC(=O)[C@@H](N)CSSC[C@@H](C(=O)O)NC(=O)[C@H](C(C)C)NC(=O)[C@H](CCC(N)=O)NC(=O)[C@H](C(C)C)NC(=O)[C@H]([C@@H](C)O)NC(=O)[C@H](C(C)C)NC(=O)[C@H](CCCNC(=N)N)NC(=O)[C@H](CC(C)C)NC(=O)CNC(=O)[C@H](CCCNC(=N)N)NC(=O)[C@H](CCCNC(=N)N)NC(=O)[C@H](CCCNC(=N)N)NC(=O)[C@H](CC(=O)O)NC(=O)[C@H](CC(=O)O)NC(=O)[C@H](CC(C)C)NC(=O)[C@H](CCCNC(=N)N)NC1=O [SyRA-9] (H-CVTIRLDDRRRGLRVTVQVC-OH; disulfide 1-20) |
| >256 µg/mL | CC[C@H](C)[C@@H]1NC(=O)[C@H](CCCCN)NC(=O)[C@H](CC(C)C)NC(=O)CNC(=O)CNC(=O)[C@H](CCCNC(=N)N)NC(=O)[C@H](CCCNC(=N)N)NC(=O)[C@H](CC(=O)O)NC(=O)[C@H](CC(=O)O)NC(=O)[C@H](C(C)C)NC(=O)[C@H](CCCNC(=N)N)NC(=O)[C@H](C(C)C)NC(=O)[C@H](CCCNC(=N)N)NC(=O)[C@H](C(C)C)NC(=O)[C@@H](N)CSSC[C@@H](C(=O)O)NC(=O)[C@H](C(C)C)NC(=O)[C@H](CCC(N)=O)NC(=O)[C@H](CC(C)C)NC(=O)[C@H](CO)NC1=O [SyRA-12] (H-CVRVRVDDRRGGLKISLQVC-OH; disulfide 1-20) |
| >256 µg/mL | CC[C@H](C)[C@@H]1NC(=O)[C@H](CCCCN)NC(=O)[C@H](CC(C)C)NC(=O)[C@H](CCCNC(=N)N)NC(=O)CNC(=O)CNC(=O)[C@H](CCCNC(=N)N)NC(=O)[C@H](CC(N)=O)NC(=O)[C@H](CC(N)=O)NC(=O)[C@H](C(C)C)NC(=O)[C@H](CCCNC(=N)N)NC(=O)[C@H](C(C)C)NC(=O)[C@H]([C@@H](C)O)NC(=O)[C@H](C(C)C)NC(=O)[C@@H](N)CSSC[C@@H](C(=O)O)NC(=O)[C@H](C(C)C)NC(=O)[C@H](CCC(N)=O)NC(=O)[C@H](CC(C)C)NC(=O)[C@H]([C@@H](C)O)NC1=O [SyRA-14] (H-CVTVRVNNRGGRLKITLQVC-OH; disulfide 1-20) |
| >256 µg/mL | CC[C@H](C)[C@@H]1NC(=O)[C@H](CCCNC(=N)N)NC(=O)[C@H](CC(C)C)NC(=O)[C@H](CCCNC(=N)N)NC(=O)[C@H](CO)NC(=O)[C@H](CCCNC(=N)N)NC(=O)[C@H](CCCNC(=N)N)NC(=O)[C@H](CC(=O)O)NC(=O)[C@H](CC(N)=O)NC(=O)[C@H](CC(C)C)NC(=O)[C@H](CCCNC(=N)N)NC(=O)[C@H](C(C)C)NC(=O)[C@H]([C@@H](C)O)NC(=O)[C@H](C(C)C)NC(=O)[C@@H](N)CSSC[C@@H](C(=O)O)NC(=O)[C@H](C(C)C)NC(=O)[C@H](CCC(=O)O)NC(=O)[C@H](CC(C)C)NC(=O)[C@H]([C@@H](C)O)NC1=O [SyRA-15] (H-CVTVRLNDRRSRLRITLEVC-OH; disulfide 1-20) |
| >256 µg/mL | CC[C@H](C)[C@@H]1NC(=O)[C@H](CCCNC(=N)N)NC(=O)[C@H](C(C)C)NC(=O)[C@H](CCCNC(=N)N)NC(=O)[C@@H](N)CSSC[C@@H](C(=O)O)NC(=O)[C@H](CCC(=O)O)NC(=O)[C@H](C(C)C)NC(=O)[C@H](CCC(N)=O)NC(=O)[C@H](CC(C)C)NC(=O)[C@H](CCCCN)NC(=O)[C@H](CC(C)C)NC(=O)[C@H](CCCNC(=N)N)NC(=O)CNC(=O)[C@H](CCCNC(=N)N)NC(=O)[C@H](CCCNC(=N)N)NC(=O)[C@H](CC(=O)O)NC(=O)[C@H](CC(=O)O)NC(=O)[C@H](C(C)C)NC(=O)[C@H](CC(N)=O)NC1=O [SyRC-1] (H-CRVRINVDDRRGRLKLQVEC-OH; disulfide 1-20) |

Second part, the compound before the results:

| Structure (SMILES) | W3110 MIC |
| --- | --- |
| CC(C)C[C@@H]1NC(=O)[C@H](CCCNC(=N)N)NC(=O)[C@H](C(C)C)NC(=O)[C@H](CCCNC(=N)N)NC(=O)[C@H](CC(C)C)NC(=O)[C@@H](N)CSSC[C@@H](C(=O)O)NC(=O)[C@H](C(C)C)NC(=O)[C@H](CCC(N)=O)NC(=O)[C@H](C(C)C)NC(=O)[C@H](CO)NC(=O)[C@H](C(C)C)NC(=O)[C@H](CCCCN)NC(=O)[C@H](C(C)C)NC(=O)[C@H](CCCNC(=N)N)NC(=O)[C@H](CCCNC(=N)N)NC(=O)CNC(=O)CNC(=O)[C@H](CC(N)=O)NC(=O)[C@H](CC(N)=O)NC1=O [SyRA-3] (H-CLRVRLNNGGRRVKVSVQVC-OH; disulfide 1-20) | > 256 µg/mL |
| CC[C@H](C)[C@@H]1NC(=O)[C@H](CCCNC(=N)N)NC(=O)[C@H](C(C)C)NC(=O)CNC(=O)[C@H](CCCNC(=N)N)NC(=O)CNC(=O)CNC(=O)[C@H](CC(N)=O)NC(=O)[C@H](CC(=O)O)NC(=O)[C@H](CC(C)C)NC(=O)[C@H](CCCNC(=N)N)NC(=O)[C@H]([C@@H](C)CC)NC(=O)[C@H]([C@@H](C)O)NC(=O)[C@H](CC(C)C)NC(=O)[C@@H](N)CSSC[C@@H](C(=O)O)NC(=O)[C@H](C(C)C)NC(=O)[C@H](CCC(N)=O)NC(=O)[C@H](CC(C)C)NC(=O)[C@H](CO)NC1=O [SyRA-5] (H-CLTIRLDNGGRGVRISLQVC-OH; disulfide 1-20) | >256 µg/mL |
| CC[C@H](C)[C@@H]1NC(=O)[C@H](CCCNC(=N)N)NC(=O)[C@H](C(C)C)NC(=O)CNC(=O)[C@H](CO)NC(=O)CNC(=O)CNC(=O)[C@H](CC(=O)O)NC(=O)[C@H](CC(N)=O)NC(=O)[C@H](CC(C)C)NC(=O)[C@H](CCCNC(=N)N)NC(=O)[C@H](C(C)C)NC(=O)[C@H](CCCNC(=N)N)NC(=O)[C@H](C(C)C)NC(=O)[C@@H](N)CSSC[C@@H](C(=O)O)NC(=O)[C@H](C(C)C)NC(=O)[C@H](CCC(N)=O)NC(=O)[C@H](C(C)C)NC(=O)[C@H](CO)NC1=O [SyRA-6] (H-CVRVRLNDGGSGVRISVQVC-OH; disulfide 1-20) | >256 µg/mL |
| CC[C@H](C)[C@@H]1NC(=O)[C@H]([C@@H](C)O)NC(=O)[C@H](C(C)C)NC(=O)[C@@H](N)CSSC[C@@H](C(=O)O)NC(=O)[C@H](C(C)C)NC(=O)[C@H](CCC(=O)O)NC(=O)[C@H](C(C)C)NC(=O)[C@H]([C@@H](C)O)NC(=O)[C@H](C(C)C)NC(=O)[C@H](CCCCN)NC(=O)[C@H](C(C)C)NC(=O)CNC(=O)CNC(=O)[C@H](CCCNC(=N)N)NC(=O)CNC(=O)[C@H](CC(N)=O)NC(=O)[C@H](CC(=O)O)NC(=O)[C@H](C(C)C)NC(=O)[C@H](CCCNC(=N)N)NC1=O [SyRA-8] (H-CVTIRVDNGRGGVKVTVEVC-OH; disulfide 1-20) | >256 µg/mL |
| CC[C@H](C)[C@@H]1NC(=O)[C@H](CCCNC(=N)N)NC(=O)[C@H](C(C)C)NC(=O)[C@H](CCCNC(=N)N)NC(=O)[C@H](CO)NC(=O)CNC(=O)CNC(=O)[C@H](CC(N)=O)NC(=O)[C@H](CC(N)=O)NC(=O)[C@H](C(C)C)NC(=O)[C@H](CCCNC(=N)N)NC(=O)[C@H]([C@@H](C)CC)NC(=O)[C@H](CCCNC(=N)N)NC(=O)[C@H](CC(C)C)NC(=O)[C@@H](N)CSSC[C@@H](C(=O)O)NC(=O)[C@H](C(C)C)NC(=O)[C@H](CCC(=O)O)NC(=O)[C@H](CC(C)C)NC(=O)[C@H](CO)NC1=O [SyRA-10] (H-CLRIRVNNGGSRVRISLEVC-OH; disulfide 1-20) | >256 µg/mL |
| CC[C@H](C)[C@@H]1NC(=O)[C@H](CCCNC(=N)N)NC(=O)[C@H](C(C)C)NC(=O)CNC(=O)[C@H](CO)NC(=O)[C@H](CCCNC(=N)N)NC(=O)CNC(=O)[C@H](CC(N)=O)NC(=O)[C@H](CC(=O)O)NC(=O)[C@H](CC(C)C)NC(=O)[C@H](CCCNC(=N)N)NC(=O)[C@H](C(C)C)NC(=O)[C@H]([C@@H](C)O)NC(=O)[C@H](C(C)C)NC(=O)[C@@H](N)CSSC[C@@H](C(=O)O)NC(=O)[C@H](C(C)C)NC(=O)[C@H](CCC(N)=O)NC(=O)[C@H](C(C)C)NC(=O)[C@H](CO)NC1=O [SyRA-13] (H-CVTVRLDNGRSGVRISVQVC-OH; disulfide 1-20) | >256 µg/mL |
